# Data published in US7531482B2, “Thieno-pyrimidine compounds having fungicidal activity” (Dow AgroSciences LLC, priority 2005, dated 2009).
# Tests used:
# Assay type in all cases: in vivo
# Colletotricum lagenarium = assay: Cucumber Anthracnose (COLLLA) whole-plant disease control test; conditions: Cucumis sativus, foliar; 200 ppm applied to foliage of cucumber; inoculated one day after treatment; read-out: COLLLA disease control
# Erysiphe cichoracaerum = assay: Cucumber Powdery Mildew (ERYSCI) whole-plant disease control test; conditions: Erysiphe, foliar; 200 ppm applied to foliage of cucumber; inoculated one day after treatment; read-out: ERYSCI disease control
# Leptosphaeria nodorum = assay: Glume Blotch of Wheat (LEPTNO) whole-plant disease control test; conditions: Parastagonospora nodorum, foliar; for pest or weed control at 200 ppm: 200 ppm applied to foliage of wheat, inoculated one day after treatment, read-out: LEPTNO disease control; for pest or weed control at 75 ppm: 75 ppm (footnote b), wheat foliage
# Phytophthora infestans = assay: whole plant or invertebrate; conditions: inoculated one day after treatment; for pest or weed control at 200 ppm: Phytophthora infestans, in Solanum lycopersicum, foliar, read-out: PHYTIN disease control, 200 ppm applied to foliage of tomato
# [1] = test system: Puccinia recondita tritici; assay: Leaf Rust of Wheat (PUCCRT) whole-plant disease control test; conditions: 200 ppm applied to foliage of wheat, inoculated one day after treatment; for pest or weed control at 200 ppm: Puccinia recondita, foliar, read-out: PUCCRT disease control
# [2] = test system: Magnaporthe grisea=Pyricularia oryzae; assay: whole plant or invertebrate; conditions: for pest or weed control at 200 ppm / pest or weed control at 8.3 ppm: Pyricularia oryzae, foliar; for pest or weed control at 200 ppm: read-out: PYRIOR disease control, 200 ppm applied to foliage of rice; for pest or weed control at 8.3 ppm: read-out: PYRIOR disease control, 8.3 ppm (footnote c), rice foliage
# [3] = test system: Mycosphaerella graminicola=Septoria tritici; assay: Speckled Leaf Blotch of Wheat (SEPTTR) whole-plant disease control test; conditions: 75 ppm applied to foliage of wheat; for pest or weed control at 75 ppm: Mycosphaerella, foliar, read-out: SEPTTR disease control
# [4] = inoculated one day after treatment
smiles,measurement,setting,value
N#Cc1nc(F)c(F)c(Oc2ccc(CCNc3ncnc4scc(Cl)c34)cc2)c1F [Compound 103],pest or weed control at 200 ppm,Colletotricum lagenarium,50 to 79%
same,pest or weed control at 200 ppm,Erysiphe cichoracaerum,0 to 49%
same,pest or weed control at 200 ppm,Leptosphaeria nodorum,50 to 79%
same,pest or weed control at 200 ppm,Phytophthora infestans,0 to 49%
same,pest or weed control at 200 ppm,[1],50 to 79%
same,pest or weed control at 200 ppm,[2]; [4],50 to 79%
same,pest or weed control at 75 ppm,[3],0 to 49%
Clc1cc(Br)cnc1Oc1ccc(CCNc2ncnc3scc(Cl)c23)cc1 [Compound 51],pest or weed control at 200 ppm,Colletotricum lagenarium,0 to 49%
same,pest or weed control at 200 ppm,Erysiphe cichoracaerum,0 to 49%
same,pest or weed control at 200 ppm,Leptosphaeria nodorum,0 to 49%
same,pest or weed control at 200 ppm,Phytophthora infestans,0 to 49%
same,pest or weed control at 200 ppm,[1],80 to 100%
same,pest or weed control at 200 ppm,[2]; [4],80 to 100%
same,pest or weed control at 75 ppm,[3],50 to 79%
FC(F)(F)COc1ccnc(Oc2ccc(CCNc3ncnc4scc(Cl)c34)cc2)n1 [Compound 44],pest or weed control at 200 ppm,Colletotricum lagenarium,0 to 49%
same,pest or weed control at 200 ppm,Erysiphe cichoracaerum,50 to 79%
same,pest or weed control at 200 ppm,Leptosphaeria nodorum,80 to 100%
same,pest or weed control at 200 ppm,Phytophthora infestans,50 to 79%
same,pest or weed control at 200 ppm,[1],80 to 100%
same,pest or weed control at 200 ppm,[2]; [4],80 to 100%
same,pest or weed control at 75 ppm,[3],80 to 100%
O=C(Oc1ccc(CCNc2ncnc3scc(Cl)c23)cc1)c1ccccn1 [Compound 14],pest or weed control at 200 ppm,Colletotricum lagenarium,0 to 49%
same,pest or weed control at 200 ppm,Erysiphe cichoracaerum,0 to 49%
same,pest or weed control at 200 ppm,Leptosphaeria nodorum,50 to 79%
same,pest or weed control at 200 ppm,Phytophthora infestans,0 to 49%
same,pest or weed control at 200 ppm,[1],80 to 100%
same,pest or weed control at 200 ppm,[2]; [4],80 to 100%
same,pest or weed control at 75 ppm,[3],0 to 49%
Clc1cccc(Oc2ccc(CCNc3ncnc4scc(Cl)c34)cc2)n1 [Compound 37],pest or weed control at 200 ppm,Colletotricum lagenarium,80 to 100%
same,pest or weed control at 200 ppm,Erysiphe cichoracaerum,80 to 100%
same,pest or weed control at 200 ppm,Leptosphaeria nodorum,0 to 49%
same,pest or weed control at 200 ppm,Phytophthora infestans,0 to 49%
same,pest or weed control at 200 ppm,[1],80 to 100%
same,pest or weed control at 200 ppm,[2]; [4],80 to 100%
same,pest or weed control at 75 ppm,[3],50 to 79%
COc1cc(C(F)(F)F)cc(Oc2ccc(CCNc3ncnc4scc(Cl)c34)cc2)n1 [Compound 63],pest or weed control at 200 ppm,Colletotricum lagenarium,50 to 79%
same,pest or weed control at 200 ppm,Erysiphe cichoracaerum,80 to 100%
same,pest or weed control at 200 ppm,Leptosphaeria nodorum,0 to 49%
same,pest or weed control at 200 ppm,Phytophthora infestans,50 to 79%
same,pest or weed control at 200 ppm,[1],80 to 100%
same,pest or weed control at 200 ppm,[2]; [4],80 to 100%
same,pest or weed control at 75 ppm,[3],50 to 79%
Fc1nc(F)c(F)c(Oc2ccc(CCNc3ncnc4scc(Cl)c34)cc2)c1F [Compound 110],pest or weed control at 200 ppm,Colletotricum lagenarium,50 to 79%
same,pest or weed control at 200 ppm,Erysiphe cichoracaerum,80 to 100%
same,pest or weed control at 75 ppm,Leptosphaeria nodorum,50 to 79%
same,pest or weed control at 200 ppm,Phytophthora infestans,0 to 49%
same,pest or weed control at 200 ppm,[1],80 to 100%
same,pest or weed control at 8.3 ppm,[2],80 to 100%
same,pest or weed control at 75 ppm,[3],50 to 79%
Clc1csc2ncnc(NCCc3ccc(Oc4ncccn4)cc3)c12 [Compound 17],pest or weed control at 200 ppm,Colletotricum lagenarium,0 to 49%
same,pest or weed control at 200 ppm,Erysiphe cichoracaerum,50 to 79%
same,pest or weed control at 200 ppm,Leptosphaeria nodorum,50 to 79%
same,pest or weed control at 200 ppm,Phytophthora infestans,80 to 100%
same,pest or weed control at 200 ppm,[1],80 to 100%
same,pest or weed control at 200 ppm,[2]; [4],80 to 100%
same,pest or weed control at 75 ppm,[3],50 to 79%
N#Cc1nccnc1Oc1ccc(CCNc2ncnc3scc(Cl)c23)cc1 [Compound 125],pest or weed control at 200 ppm,Colletotricum lagenarium,0 to 49%
same,pest or weed control at 200 ppm,Erysiphe cichoracaerum,50 to 79%
same,pest or weed control at 75 ppm,Leptosphaeria nodorum,0 to 49%
same,pest or weed control at 200 ppm,Phytophthora infestans,50 to 79%
same,pest or weed control at 200 ppm,[1],80 to 100%
same,pest or weed control at 8.3 ppm,[2],80 to 100%
same,pest or weed control at 75 ppm,[3],50 to 79%
FC(F)(F)c1ccc(Oc2ccc(CCNc3ncnc4scc(Cl)c34)cc2)cn1 [Compound 65],pest or weed control at 200 ppm,Colletotricum lagenarium,80 to 100%
same,pest or weed control at 200 ppm,Erysiphe cichoracaerum,50 to 79%
same,pest or weed control at 200 ppm,Leptosphaeria nodorum,50 to 79%
same,pest or weed control at 200 ppm,Phytophthora infestans,80 to 100%
same,pest or weed control at 200 ppm,[1],80 to 100%
same,pest or weed control at 200 ppm,[2]; [4],80 to 100%
same,pest or weed control at 75 ppm,[3],80 to 100%
CCOC(=O)c1cccc(Oc2ccc(CCNc3ncnc4scc(Cl)c34)cc2)n1 [Compound 80],pest or weed control at 200 ppm,Colletotricum lagenarium,0 to 49%
same,pest or weed control at 200 ppm,Erysiphe cichoracaerum,0 to 49%
same,pest or weed control at 200 ppm,Leptosphaeria nodorum,0 to 49%
same,pest or weed control at 200 ppm,Phytophthora infestans,80 to 100%
same,pest or weed control at 200 ppm,[1],80 to 100%
same,pest or weed control at 200 ppm,[2]; [4],80 to 100%
same,pest or weed control at 75 ppm,[3],0 to 49%
FC(F)(F)c1cc(Oc2ccc(CCNc3ncnc4scc(Cl)c34)cc2)nc(C(F)(F)F)c1 [Compound 76],pest or weed control at 200 ppm,Colletotricum lagenarium,50 to 79%
same,pest or weed control at 200 ppm,Erysiphe cichoracaerum,0 to 49%
same,pest or weed control at 200 ppm,Leptosphaeria nodorum,50 to 79%
same,pest or weed control at 200 ppm,Phytophthora infestans,0 to 49%
same,pest or weed control at 200 ppm,[1],80 to 100%
same,pest or weed control at 200 ppm,[2]; [4],80 to 100%
same,pest or weed control at 75 ppm,[3],0 to 49%
Clc1csc2ncnc(NCCc3ccc(Oc4nc(Br)ns4)cc3)c12 [Compound 112],pest or weed control at 200 ppm,Colletotricum lagenarium,50 to 79%
same,pest or weed control at 200 ppm,Erysiphe cichoracaerum,0 to 49%
same,pest or weed control at 200 ppm,Leptosphaeria nodorum,0 to 49%
same,pest or weed control at 200 ppm,Phytophthora infestans,50 to 79%
same,pest or weed control at 200 ppm,[1],80 to 100%
same,pest or weed control at 200 ppm,[2]; [4],80 to 100%
same,pest or weed control at 75 ppm,[3],0 to 49%
Cc1cc(OC(F)F)cnc1Oc1ccc(CCNc2ncnc3scc(Cl)c23)cc1 [Compound 70],pest or weed control at 200 ppm,Colletotricum lagenarium,80 to 100%
same,pest or weed control at 200 ppm,Erysiphe cichoracaerum,0 to 49%
same,pest or weed control at 200 ppm,Leptosphaeria nodorum,80 to 100%
same,pest or weed control at 200 ppm,Phytophthora infestans,50 to 79%
same,pest or weed control at 200 ppm,[1],80 to 100%
same,pest or weed control at 200 ppm,[2]; [4],80 to 100%
same,pest or weed control at 75 ppm,[3],80 to 100%
Clc1csc2ncnc(NCCc3ccc(Oc4ncnc5scnc45)cc3)c12 [Compound 86],pest or weed control at 200 ppm,Colletotricum lagenarium,0 to 49%
same,pest or weed control at 200 ppm,Erysiphe cichoracaerum,50 to 79%
same,pest or weed control at 200 ppm,Leptosphaeria nodorum,50 to 79%
same,pest or weed control at 200 ppm,Phytophthora infestans,80 to 100%
same,pest or weed control at 200 ppm,[1],80 to 100%
same,pest or weed control at 200 ppm,[2]; [4],50 to 79%
same,pest or weed control at 75 ppm,[3],80 to 100%
Clc1csc2ncnc(NCCc3ccc(Oc4ncnc5scc(Cl)c45)cc3)c12 [Compound 108],pest or weed control at 200 ppm,Colletotricum lagenarium,0 to 49%
same,pest or weed control at 200 ppm,Erysiphe cichoracaerum,0 to 49%
same,pest or weed control at 200 ppm,Leptosphaeria nodorum,0 to 49%
same,PHYTIN disease control,Phytophthora infestans; 200 ppm applied to foliage of tomato,* (* = 0–49 percent control)
same,PUCCRT disease control,[1],* (* = 0–49 percent control)
same,PYRIOR disease control,"[2]; 200 ppm applied to foliage of rice, inoculated one day after treatment",** (** = 50–79 percent control)
same,SEPTTR disease control,[3],** (** = 50–79 percent control)
CCc1ncnc(Oc2ccc(CCNc3ncnc4scc(Cl)c34)cc2)c1Cl [Compound 52],pest or weed control at 200 ppm,Colletotricum lagenarium,50 to 79%
same,pest or weed control at 200 ppm,Erysiphe cichoracaerum,50 to 79%
same,pest or weed control at 200 ppm,Leptosphaeria nodorum,50 to 79%
same,pest or weed control at 200 ppm,Phytophthora infestans,0 to 49%
same,pest or weed control at 200 ppm,[1],80 to 100%
same,pest or weed control at 200 ppm,[2]; [4],80 to 100%
same,pest or weed control at 75 ppm,[3],80 to 100%
Clc1nccc(Oc2ccc(CCNc3ncnc4scc(Cl)c34)cc2)n1 [Compound 45],pest or weed control at 200 ppm,Colletotricum lagenarium,0 to 49%
same,pest or weed control at 200 ppm,Erysiphe cichoracaerum,0 to 49%
same,pest or weed control at 200 ppm,Leptosphaeria nodorum,0 to 49%
same,pest or weed control at 200 ppm,Phytophthora infestans,0 to 49%
same,pest or weed control at 200 ppm,[1],80 to 100%
same,pest or weed control at 200 ppm,[2]; [4],50 to 79%
same,pest or weed control at 75 ppm,[3],50 to 79%
N#Cc1cccc(Oc2ccc(CCNc3ncnc4scc(Cl)c34)cc2)n1 [Compound 32],pest or weed control at 200 ppm,Colletotricum lagenarium,50 to 79%
same,pest or weed control at 200 ppm,Erysiphe cichoracaerum,80 to 100%
same,pest or weed control at 200 ppm,Leptosphaeria nodorum,0 to 49%
same,pest or weed control at 200 ppm,Phytophthora infestans,50 to 79%
same,pest or weed control at 200 ppm,[1],80 to 100%
same,pest or weed control at 200 ppm,[2]; [4],80 to 100%
same,pest or weed control at 75 ppm,[3],50 to 79%
Clc1csc2ncnc(NCCc3ccc(Oc4cc(I)ccn4)cc3)c12 [Compound 43],pest or weed control at 200 ppm,Colletotricum lagenarium,50 to 79%
same,pest or weed control at 200 ppm,Erysiphe cichoracaerum,80 to 100%
same,pest or weed control at 200 ppm,Leptosphaeria nodorum,80 to 100%
same,pest or weed control at 200 ppm,Phytophthora infestans,0 to 49%
same,pest or weed control at 200 ppm,[1],80 to 100%
same,pest or weed control at 200 ppm,[2]; [4],80 to 100%
same,pest or weed control at 75 ppm,[3],80 to 100%
Clc1csc2ncnc(NCCc3ccc(Oc4cccc(C(Cl)(Cl)Cl)n4)cc3)c12 [Compound 77],pest or weed control at 200 ppm,Colletotricum lagenarium,0 to 49%
same,pest or weed control at 200 ppm,Erysiphe cichoracaerum,0 to 49%
same,pest or weed control at 200 ppm,Leptosphaeria nodorum,80 to 100%
same,pest or weed control at 200 ppm,Phytophthora infestans,0 to 49%
same,pest or weed control at 200 ppm,[1],80 to 100%
same,pest or weed control at 200 ppm,[2]; [4],80 to 100%
same,pest or weed control at 75 ppm,[3],0 to 49%
